Laboratory results reported in patent EP0361645B1, “Organic hydrazine derivatives for pharmaceutical use” (ROHM AND HAAS COMPANY, priority 1988, dated 1990).

Test system: Kr cells
Assay: Process elaboration and inhibition of cell proliferation in Kr cells
Assay type: cell-based, Drosophila
Details: Drosophila melanogaster; 48 hours incubation; initial cell density 2 X 10^6 cells/ml
Method: The invention will now be further described by way of exemplification and by reference to the drawings in which; • Figure 1. Both 20-hydroxyecdysone and Example No. 3 induce process elaboration (A) and inhibition of cell proliferation (B) in Kr cells in a dose-dependent manner. Initial cell density was 2 X 10^6 cells/ml; after incubation of 1 ml aliquots of the cells with the compound for 48 hours the cells were triturated gently and the percentage of cells responding (with processes longer than approximately 17 um, see Cherbas et al. 189 Wilhelm Roux's Arch. 1 (1980)) and total cell density was determined by hemocytom- eter counting, relative to ethanol (1 ul)-treated controls. Determinations were in triplicate for each dose. […] Induction of acetylcholinesterase by varying concentrations of 20-hydroxyecdysone and Example No. 3. Kr cells at an initial density of 3 X 10^6 cells/ml (10 ml per sample) were incubated with the agonist for three days. After harvesting, by centrifugation at 3000 X g, the cell pellets were washed with Robb's Drosophila saline (18, 2 X 5 ml) at 4 ° C, then lysed by sonication in 1 ml of phosphate buffer (pH 7.4, I = 0.1 M) containing 0.5 M NaCI, 0.25 M EDTA and 0.5% TRITON? X-100. See Cherbas, 197 Science 275 (1977). Triton is a registered trademark of Rohm and Haas Company for a alkylaryl polyoxyethylene glycol surfactant. After centrifugation at 16,000 X g, the supernatants were assayed for acetylcholinesterase activity by an adaptation of the method of Ellman et al., 7 Biochem. Pharmacol. 88 (1961), by subtracting out any 412 nm absorbance observed in incubations in the presence of 2 X 10-5 eserine sulfate. Thus reaction mixtures contained 50 ul of enzyme extract, 20 ul eserine (blank tubes only) and 1.0 ml of 0.5 mM acetylthiocholine, 0.3 mM dithiobisnitrobenzoic acid in phosphate buffer (pH 7.4, I = 0.1 M). Incubations were at 25 ° C for two hours; reactions in active tubes were terminated by addition of eserine. Absorbance at 412 nm was then measured. Protein concentration in extracts was measured by the Biorad method. […] Scatchard plot of ^3H-ponasterone A binding to Kr cell cytosolic receptor extracts in the presence of differing concentrations of Example No. 3. Cytosolic extract preparation and ecdysteroid receptor assays were essentially as described in Sage, 111 Meth. in Enzymol. 458 (1985). Example No. 3 was added in 1 ul DMSO to 50 ul of radioligand in 10 mM Tris buffer (pH 7.2) and 50 ul of undiluted cytosol extract. […] Ecdysteroid titers were measured by a radioimmunoassay adapted from Warren et al., 40 Experientia 393 (1984) with Protein A-Staph. aureus suspension (Sigma) used as the reagent to separate bound from free ligand. […]

SMILES | EC50 [nM]
CC(C)(O)CC[C@@H](O)[C@](C)(O)[C@H]1CC[C@@]2(O)C3=CC(=O)[C@@H]4C[C@@H](O)[C@@H](O)C[C@]4(C)[C@H]3CC[C@]12C [20-hydroxyecdysone, reference compound] | 35
CC(C)(C)N(NC(=O)c1ccccc1)C(=O)c1ccccc1 [Example No. 3, N'-t-butyl-N,N'-dibenzoylhydrazine] | 4800
